US7803757B2, “Peptides based on the sequence of human lactoferrin and their use” (PharmaSurgics in Sweden AB, priority 1998, dated 2010)
Converted amounts (≈) assume the structure as drawn. Bridge positions count the residues as written; N and C are the ends. Square brackets hold non-standard residues; d marks the D form. Ends that are not written are not given here. Peptide text beside a SMILES is read from it. Nle = CCCC[C@H](N)C(=O)O; Orn = NCCC[C@H](N)C(=O)O

What was measured:
Format in all cases: cell-based
S. aureus [1] = assay: MMC99% of modified peptides, S. aureus (Example 25); settings: BHI diluted 1/100, pH approximately 6.7-6.9 (Table 21)
Protocol: (§1) In the examples, the minimal microbicidal concentrations (MMC) and minimal inhibitory concentrations (MIC) were determined as follows, unless otherwise specified in the examples. Bacterial or fungal strains were cultured in BHI medium over night at 37° C. A volume of the culture was transferred to a new tube with BHI and incubated for two more hours. Thereafter the cells were spun down and the pellet was suspended in BHI medium diluted 1/100 (1% BHI). The concentration of bacterial or fungal cells was spectrophotometrically determined at 650 nm. The microbial concentrations were also determined by viable counts. Peptides serially diluted in 1% BHI by twofold or tenfold steps were added in triplicate to the wells of a microtiterplate (200 μl per well). The bacterial or fungal cell solutions were added in 10 μl volumes to give a final concentration of approximately 1-5×10^5 cells per ml in the well. The microplate was incubated at 37° C. in a humid chamber for two hours. Thereafter 5 μl was taken from each well and added as a drop onto a blood agar plate and incubated over night at 37° C. The microplate was incubated for another 20 hours at 37° C. and thereafter analysed spectrophotometrically at 650 nm in a microplate reader (Emax, Molecular Devices, USA). The concentration of peptide causing a 99% reduction of the inoculum after 2 hours of incubation was defined as the MMC99%. The MIC value was defined as the concentration giving no increase in the absorbance value above the background level after 20 hours of incubation.
(§2) In this example the fungicidal, and bactericidal effects of the different peptides obtained in examples 18-21 were studied. C. albicans, E. coli and S. aureus, respectively, were incubated in BHI medium diluted 1/100, with a pH of approximately 6.7-6.9. The concentration of each peptide needed to kill 99% of the microorganisms (MMC99%) was determined.

C. albicans = assay: MMC99% of modified peptides, C. albicans (Example 25); settings: BHI diluted 1/100, pH approximately 6.7-6.9 (Table 21)
Protocol: as §1, §2

E. coli = assay: MMC99% of modified peptides, E. coli (Example 25); settings: BHI diluted 1/100, pH approximately 6.7-6.9 (Table 21)
Protocol: as §1, §2

[2] = tested on: C. albicans yeast cells (ATCC64549); assay: killing and growth inhibition of C. albicans at pH 4.5 (Example 11); parameters: key to C. albicans inhibition (OD650): + = no increase in OD650 is seen; − = OD650 continues to increase; settings: pH 4.5, 1% BHI, 25 μg/ml of the peptide; for C. albicans inhibition (OD650): OD650 after an additional 18 hours; for C. albicans killing: 99% / C. albicans killing: 100%: 2 hours
Protocol: C. albicans yeast cells (ATCC64549) were incubated for 2 hours at pH 4.5 in BHI medium diluted to 1% of the original concentration containing 25 µg/ml of the peptide. Thereafter the fungal solutions were cultured on blood agar plates. OD650 was measured after incubation during an additional 18 hours. The fungicidal effect of the peptides on C. albicans was determined as the ability of the peptide to kill 100% and 99%, respectively, of the fungus, while the growth inhibitory effect was determined by measuring the OD650. An inhibitory effect existed when no increase in OD650 was recorded.

S. aureus [3] = assay: killing of bacteria at fixed peptide concentration, S. aureus (Example 12); settings: peptide 25 μg/ml
Protocol: (§3) In this example, the peptides according to the invention were used to study the effect on the killing of different bacteria.
(§4) The peptides were used at a concentration of 25 μg/ml.

S. epidermis = assay: killing of bacteria at fixed peptide concentration, S. epidermis (Example 12); settings: peptide 25 μg/ml
Protocol: as §3, §4

E. coli O6 = settings: for MMC99%: E. coli O6, tested at 1, 10, 25 and 100 μg/ml of peptide; for MIC: O6
Protocol: as §1
(§5) C. albicans (ATCC64549) and E. coli O6, respectively, were incubated with the different peptides. The experiments were performed with 1, 10, 25 and 100 μg/ml of peptide.

C. albicans (ATCC64549) = settings: for MIC: ATCC64549; for MMC99%: C. albicans, tested at 1, 10, 25 and 100 μg/ml of peptide
Protocol: as §1, §5

P. aeruginosa = assay: killing of bacteria at fixed peptide concentration, P. aeruginosa (Example 12); settings: peptide 25 μg/ml
Protocol: as §3, §4

K. pneumoniae = assay: killing of bacteria at fixed peptide concentration, K. pneumoniae (Example 12); settings: peptide 25 μg/ml
Protocol: as §3, §4

E. faecalis = assay: killing of bacteria at fixed peptide concentration, E. faecalis (Example 12); settings: peptide 25 μg/ml
Protocol: as §3, §4

Row | Molecule | MMC99% (S. aureus [1]) | MMC99% (C. albicans) | MMC99% (E. coli) | also measured
1 | C-F-Q-W-E-R-N-M-R-K-V-R (CFQWERNMRKVR) [SEQ. ID. NO. 84] | 14 | 12 | 25 | 
2 | CSCC[C@@H]1NC(=O)[C@@H](NC(=O)[C@H](CCCNC(=N)N)NC(=O)[C@@H]2CC(=O)NCCCC[C@H](NC(=O)[C@H](CCCCN)NC(=O)[C@@H](NC(C)=O)[C@@H](C)O)C(=O)N[C@@H](Cc3ccccc3)C(=O)N[C@@H](CCC(N)=O)C(=O)N[C@@H](Cc3c[nH]c4ccccc34)C(=O)N2)CCCCNC(=O)C[C@@H](C(=O)N[C@@H](CCCNC(=N)N)C(N)=O)NC(=O)[C@H](CCCCN)NC(=O)[C@H](CCCNC(=N)N)NC1=O [Peptide 61] (Ac-TKKFQWDRKMRKDR-NH2; lactam 3-7, 9-13; N-terminus and C-terminus assumed) |  |  |  | C. albicans inhibition (OD650) [2]: +; C. albicans killing: 99% [2]: + (+ = 100/99% of the bacteria are killed); C. albicans killing: 100% [2]: − (− = less than 100/99% of the bacteria are killed); killing of bacteria: S. aureus (S. aureus [3]): + (+ = 99% of the bacteria are killed); killing of bacteria: S. epidermis (S. epidermis): + (+ = 99% of the bacteria are killed); MMC99% (E. coli O6): 10 µg/mL; MIC (E. coli O6): 10 µg/mL (≈ 5.19 µM); MIC (C. albicans (ATCC64549)): 10 µg/mL (≈ 5.19 µM); MMC99% (C. albicans (ATCC64549)): 10 µg/mL; killing of bacteria: P. aeruginosa (P. aeruginosa): + (+ = 99% of the bacteria are killed); killing of bacteria: K. pneumoniae (K. pneumoniae): + (+ = 99% of the bacteria are killed); killing of bacteria: E. faecalis (E. faecalis): + (+ = 99% of the bacteria are killed)
3 | Peptide 6: SEQ. ID. NO. 1 with X1 none, X2 none, X5 A, X7 K, X11 D, X17-25 none; 14 residues (Ac-TKAFKWQRDMRKVR) |  |  |  | C. albicans inhibition (OD650) [2]: −; C. albicans killing: 99% [2]: + (+ = 100/99% of the bacteria are killed); C. albicans killing: 100% [2]: − (− = less than 100/99% of the bacteria are killed); killing of bacteria: S. aureus (S. aureus [3]): + (+ = 99% of the bacteria are killed); killing of bacteria: S. epidermis (S. epidermis): + (+ = 99% of the bacteria are killed); killing of bacteria: P. aeruginosa (P. aeruginosa): + (+ = 99% of the bacteria are killed); killing of bacteria: K. pneumoniae (K. pneumoniae): + (+ = 99% of the bacteria are killed); killing of bacteria: E. faecalis (E. faecalis): + (+ = 99% of the bacteria are killed)
4 | A-F-Q-W-Q-R-N-M-R-K-V-R (AFQWQRNMRKVR) [SEQ. ID. NO. 68] | 28 | 12 | >25 | 
5 | C-F-Q-L-Q-R-N-M-R-K-V-R (CFQLQRNMRKVR) [SEQ. ID. NO. 80] | 7 | 6 | 12 | 
6 | C-F-A-W-Q-R-N-M-R-K-V-R (CFAWQRNMRKVR) [SEQ. ID. NO. 70] | 7 | 6 | 6 | 
7 | Ac-ATKCFQWQRNMRKVR-NH2 (N-terminus and C-terminus assumed) [Peptide 63] |  |  |  | MMC99% (E. coli O6): 10 µg/mL; MIC (E. coli O6): 10 µg/mL; MIC (C. albicans (ATCC64549)): 10 µg/mL; MMC99% (C. albicans (ATCC64549)): 10 µg/mL
8 | C-F-Q-W-Q-R-N-M-A-K-V-R (CFQWQRNMAKVR) [SEQ. ID. NO. 76] | 7 | 25 | 25 | 
9 | Peptide 66: third embodiment, comprises a cysteine; sequence only in sequence listing (PEATKCFQWQRNMRKVR) |  |  |  | C. albicans inhibition (OD650) [2]: +; C. albicans killing: 99% [2]: + (+ = 100/99% of the bacteria are killed); C. albicans killing: 100% [2]: − (− = less than 100/99% of the bacteria are killed); killing of bacteria: S. aureus (S. aureus [3]): + (+ = 99% of the bacteria are killed); killing of bacteria: S. epidermis (S. epidermis): + (+ = 99% of the bacteria are killed); killing of bacteria: P. aeruginosa (P. aeruginosa): − (− = less than 99% of the bacteria are killed); killing of bacteria: K. pneumoniae (K. pneumoniae): − (− = less than 99% of the bacteria are killed); killing of bacteria: E. faecalis (E. faecalis): + (+ = 99% of the bacteria are killed)
10 | C-F-Q-A-Q-R-N-M-R-K-V-R (CFQAQRNMRKVR) [SEQ. ID. NO. 71] | 14 | 12 | 25 | 
11 | C-F-Q-W-Q-R-N-M-R-K-V-A (CFQWQRNMRKVA) [SEQ. ID. NO. 79] | 7 | 25 | 12 | 
12 | C-F-Q-W-Q-R-N-M-K-K-V-R (CFQWQRNMKKVR) [SEQ. ID. NO. 83] | 7 | 6 | 6 | 
13 | C-F-Q-W-Q-K-N-M-R-K-V-R (CFQWQKNMRKVR) [SEQ. ID. NO. 81] | 7 | 6 | 6 | 
14 | Peptide 62: third embodiment, comprises a cysteine; sequence only in sequence listing (ATKCFQWQRNMRKVR) |  |  |  | C. albicans inhibition (OD650) [2]: +; C. albicans killing: 99% [2]: + (+ = 100/99% of the bacteria are killed); C. albicans killing: 100% [2]: − (− = less than 100/99% of the bacteria are killed); killing of bacteria: S. aureus (S. aureus [3]): + (+ = 99% of the bacteria are killed); killing of bacteria: S. epidermis (S. epidermis): + (+ = 99% of the bacteria are killed); killing of bacteria: P. aeruginosa (P. aeruginosa): + (+ = 99% of the bacteria are killed); killing of bacteria: K. pneumoniae (K. pneumoniae): + (+ = 99% of the bacteria are killed); killing of bacteria: E. faecalis (E. faecalis): + (+ = 99% of the bacteria are killed)
15 | Ac-PEATKCFQWQRNMRKVR-NH2 (N-terminus and C-terminus assumed) [Peptide 67] |  |  |  | MMC99% (E. coli O6): 10 µg/mL; MIC (E. coli O6): 10 µg/mL; MIC (C. albicans (ATCC64549)): 10 µg/mL; MMC99% (C. albicans (ATCC64549)): 10 µg/mL
16 | C-F-Q-W-A-R-N-M-R-K-V-R (CFQWARNMRKVR) [SEQ. ID. NO. 72] | 7 | 12 | 12 | 
17 | C-F-Q-W-Q-R-A-M-R-K-V-R (CFQWQRAMRKVR) [SEQ. ID. NO. 74] | 3.5 | 6 | 6 | 
18 | C-F-Q-W-Q-R-N-M-R-K-A-R (CFQWQRNMRKAR) [SEQ. ID. NO. 78] | 7 | 25 | 12 | 
19 | C-F-Q-W-Q-A-N-M-R-K-V-R (CFQWQANMRKVR) [SEQ. ID. NO. 73] | 7 | 12 | 12 | 
20 | C-F-Q-W-Q-R-N-A-R-K-V-R (CFQWQRNARKVR) [SEQ. ID. NO. 75] | 7 | 25 | 12 | 
21 | C-A-Q-W-Q-R-N-M-R-K-V-R (CAQWQRNMRKVR) [SEQ. ID. NO. 69] | 14 | 12 | 12 | 
22 | C-F-Q-W-Q-E-N-M-R-K-V-R (CFQWQENMRKVR) [SEQ. ID. NO. 85] | >28 | >50 | >25 | 
23 | C-F-Q-W-Q-R-Nle-M-R-K-V-R (CFQWQR[Nle]MRKVR) [SEQ. ID. NO. 90] | 3.5 | 12 | 12 | 
24 | C-F-Q-W-Q-R-E-M-R-K-V-R (CFQWQREMRKVR) [SEQ. ID. NO. 86] | 14 | 25 | 25 | 
25 | C-F-Q-W-Q-R-N-M-R-A-V-R (CFQWQRNMRAVR) [SEQ. ID. NO. 77] | 7 | 25 | 12 | 
26 | Ac-TKAFKWQRDMRKVR-NH2 (N-terminus and C-terminus assumed) [Peptide 53] |  |  |  | MMC99% (E. coli O6): 10 µg/mL; MIC (E. coli O6): 10 µg/mL; MIC (C. albicans (ATCC64549)): 10 µg/mL; MMC99% (C. albicans (ATCC64549)): 10 µg/mL
27 | C-F-Q-W-Q-R-Orn-M-R-K-V-R (CFQWQR[Orn]MRKVR) [SEQ. ID. NO. 89] | 3.5 | 6 | 6 | 
28 | C-F-Q-W-Q-R-N-L-R-K-V-R (CFQWQRNLRKVR) [SEQ. ID. NO. 82] | 7 | 6 | 12 | 
